Holding throughout (type): cell-based
In assay [1] the test system is S. aureus. The assay can be described thus: Evolution assay of antibiotic resistance. The note with it: 100 μM ARM-1, rifampicin. The text has this:
(§1) FIGS. 4A-4C depict how ARM-1 inhibits the evolution of antibiotic resistance. FIG. 4A depicts the minimum inhibitory concentration of ARM-1 in E. coli and S. aureus. FIGS. 4B-4C depict the evolution of indicated species against (FIG. 4B) rifampicin and (FIG. 4C) trimethoprim in the presence of ARM-1. Heatmaps show median MIC over time. Concentrations are indicated to the right of each plot. Each strain and antibiotic is the result of at least 12 biological replicates. Concentration of ARM-1 used against L. monocytogenes, P. aeruginosa, and S. aureus is 100 μM. Concentration of ARM-1 used against S. typhimurium is 50 μM. Populations of bacteria are grown overnight in a series of increasing antibiotic concentrations, with or without ARM-1 present. The following day, the population from the highest tolerated concentration is re-challenged with higher concentrations of antibiotic. The median MIC is determined after each 24 hour growth period as the lowest concentration of antibiotic at which at least 50% growth impairment is observed compared to an untreated population. MIC fold change is reported as the change in MIC from the first day of growth to each subsequent day.
(§2) Next, the effect of ARM-1 on the evolution of antibiotic resistance was examined. Genetic deletion of Mfd is known to reduce the rates and extent of resistance development in laboratory evolution experiments. Using an assay previously developed, the impact of ARM-1 was assessed on resistance development across diverse pathogens and in response to multiple classes of antibiotics. In these experiments, bacteria are challenged with increasing concentrations of antibiotic over a minimum of least 55 generations. Reduced resistance development in bacteria treated with ARM-1 was observed compared to those that were untreated, in all species and antibiotics tested. […] This pattern was also observed in P. aeruginosa, S. aureus, and L. monocytogenes, with ARM-1 treatment resulting in 80, […] reduction in resistance to rifampicin, respectively (FIG. 4B). […] Sequencing of relevant resistance loci over the course of treatment confirmed that these observations are due to genetic changes; many more resistance mutations arise in untreated populations compared to those treated with ARM-1 (Table 1). […] Furthermore, patient isolates of S. typhimurium, S. aureus, and P. aeruginosa which already carry resistance mutations to other antibiotics were used, and still observed a reduction in resistance development during experiments. […]
(§3) Evolution experiments were performed for the indicated strains. […] Optical densities were subsequently measured in an Epoch2 microplate spectrophotometer (BioTek). […]

Another assay concerns S. typhimurium. The assay can be described thus: Evolution assay of antibiotic resistance. The note with it: challenged with rifampicin or trimethoprim, or phosphomycin; 50 μM ARM-1.
Description: as §1, §2, §3

In another assay the test system is P. aeruginosa. The assay can be described thus: Evolution assay of antibiotic resistance. Particulars: 100 μM ARM-1, rifampicin.
Description: as §1, §2, §3

In another assay the test system is L. monocytogenes. The assay can be described thus: Evolution assay of antibiotic resistance. The note with it: 100 μM ARM-1, rifampicin.
Description: as §1, §2, §3

The test system of assay [2] is S. aureus. Put plainly: Minimum inhibitory concentration of ARM-1 alone. Particulars: Staphylococcus aureus, constant for 196 hours of exposure.
Description: as §1, with “The median MIC is determined after each 24 hour growth period as the lowest concentration of antibiotic at which at least 50% growth impairment is observed compared to an untreated population. MIC fold change is reported as the change in MIC from the first day of growth to each subsequent day.” left out
(§4) Next, the effect of ARM-1 on the evolution of antibiotic resistance was examined. […] Using an assay previously developed, the impact of ARM-1 was assessed on resistance development across diverse pathogens and in response to multiple classes of antibiotics. […]
as §3

For the next assay, the system named is E. coli. The assay can be described thus: Minimum inhibitory concentration of ARM-1 alone. The note with it: Escherichia coli, constant for 196 hours of exposure.
Description: as §1, with “The median MIC is determined after each 24 hour growth period as the lowest concentration of antibiotic at which at least 50% growth impairment is observed compared to an untreated population. MIC fold change is reported as the change in MIC from the first day of growth to each subsequent day.” left out
as §4, §3

As usually defined, the MIC is the smallest concentration in the dilution series that meets the test's criterion for growth inhibition.

In the case of `Cc1cc(Br)ccc1-c1ccc(CNCCCN(C)C)o1` [ARM-1, N^1-((5-(4-bromo-2-methylphenyl)furan-2-yl)methyl)-N^3,N^3-dimethylpropane-1,3-diamine], the “reduction in resistance to rifampicin” value with S. aureus [1] is 800 FOLD; in the assay on P. aeruginosa, 80 FOLD; in the assay with L. monocytogenes, 1000 FOLD. Also, the “difference in median MIC fold change between untreated and treated” value in the assay with S. typhimurium is not below 100 fold. The MIC in the assay with S. aureus [2] and in the assay on E. coli was 400 µM throughout.

The values above are taken from US20260015333A1, “COMPOUNDS AND METHODS FOR INHIBITION OF THE EVOLUTION OF […]” (priority 2022, published 2026).
